Test results published in patent publication US20050142121A1, “System for improving acceptance of tissue grafts made from embryonic stem cells” (priority 2003, published 2005).

Tested on: mouse model for coronary infarction
Experiment: hES-derived cardiomyocyte transplant in mouse model for coronary infarction, echocardiography
Type: in vivo
Conditions: for cardiac improvement upon grafting with hES derived cardiomyocytes (measured by echocardiography): grafts pre-treated with the agent, animals optionally pre-conditioned with allopurinol and uricase, result in words
Procedure: Cardiomyocytes were differentiated from human embryonic stem (hES) cells and purified by density gradient centrifugation on Percoll™, according to established methods (WO 03/006950). They were adapted to decrease uric acid production upon engraftment by culturing for 24 hours in standard differentiation medium (containing 20% FBS) to which had been added 50 μg/mL allopurinol, or 0.5 Units/mL human recombinant erythropoietin (EPO). Alternatively, the cells were heat shocked in standard differentiation medium (20% FBS) by incubating at 43° C. for 45 minutes, and then transferring to a 37° C. incubator 24 h prior to harvest.
Recipient mice were prepared to decrease uric acid production by the engrafted cells by daily injection of 800 μg allopurinol and/or 10 μg uricase intramuscularly for each of the 3 days before transplant.
The transplant experiments were performed using a mouse model for coronary infarction in an external research laboratory under a Research Agreement with Geron Corporation. The left anterior descending artery was ligated as follows. Mice were anesthetized in an isoflurane inhalation chamber and received intraperitoneal injection of Ketanest/Xylazine (50 mg/kg). They were then intubated and ventilated for the entire surgical procedure. Rectal temperature was maintained at 37° C. by a thermostatically regulated heating pad. One ligation with a 9.0 silk stitch was performed on the proximal 2 mm portion of the artery.
Using a 25 g needle, 0.25-2×10^6 cells (suspended in differentiation medium without serum) were injected into the demarcated area. Immediately afterwards, a chest tube (16 G Angio-cath) was inserted and the chest was closed in layers. Ventilation was maintained until there was sufficient spontaneous breathing, and extubation followed. The ventricular diameter was measured after three weeks by echocardiography. Fractional shortening ([…])≡[(diameter at diastole minus diameter at systole)÷(diameter at diastole)].

CC(C)Cc1ccc(C(C)C(=O)O)cc1 (stereo not drawn) [ibuprophen]
cardiac improvement upon grafting with hES derived cardiomyocytes (measured by echocardiography): considerably enhanced

Oc1ncnc2[nH]ncc12 [allopurinol]
cardiac improvement upon grafting with hES derived cardiomyocytes (measured by echocardiography): considerably enhanced | Fractional shortening at 3 weeks post-treatment (infarcted mice (left anterior descending artery ligation), 0.25-2x10^6 cells injected into infarct area, echocardiography after three weeks): 24%
